Results: patent US20220016115A1, “USP19 INHIBITORS FOR USE IN THERAPY” (ALMAC DISCOVERY LIMITED, priority 2018, published 2022)
pIC50: −log10 of the molar value.

The compounds below were run against T1, USP19 (Homo sapiens, UniProt O94966) (assay: USP19 fluorescence polarisation (FP) homogeneous assay). Conditions: Ubiquitin-Lys-TAMRA substrate, full-length USP19 2.5 nM, average of at least two duplicate experiments.
T1 sequence (O94966 1-1318): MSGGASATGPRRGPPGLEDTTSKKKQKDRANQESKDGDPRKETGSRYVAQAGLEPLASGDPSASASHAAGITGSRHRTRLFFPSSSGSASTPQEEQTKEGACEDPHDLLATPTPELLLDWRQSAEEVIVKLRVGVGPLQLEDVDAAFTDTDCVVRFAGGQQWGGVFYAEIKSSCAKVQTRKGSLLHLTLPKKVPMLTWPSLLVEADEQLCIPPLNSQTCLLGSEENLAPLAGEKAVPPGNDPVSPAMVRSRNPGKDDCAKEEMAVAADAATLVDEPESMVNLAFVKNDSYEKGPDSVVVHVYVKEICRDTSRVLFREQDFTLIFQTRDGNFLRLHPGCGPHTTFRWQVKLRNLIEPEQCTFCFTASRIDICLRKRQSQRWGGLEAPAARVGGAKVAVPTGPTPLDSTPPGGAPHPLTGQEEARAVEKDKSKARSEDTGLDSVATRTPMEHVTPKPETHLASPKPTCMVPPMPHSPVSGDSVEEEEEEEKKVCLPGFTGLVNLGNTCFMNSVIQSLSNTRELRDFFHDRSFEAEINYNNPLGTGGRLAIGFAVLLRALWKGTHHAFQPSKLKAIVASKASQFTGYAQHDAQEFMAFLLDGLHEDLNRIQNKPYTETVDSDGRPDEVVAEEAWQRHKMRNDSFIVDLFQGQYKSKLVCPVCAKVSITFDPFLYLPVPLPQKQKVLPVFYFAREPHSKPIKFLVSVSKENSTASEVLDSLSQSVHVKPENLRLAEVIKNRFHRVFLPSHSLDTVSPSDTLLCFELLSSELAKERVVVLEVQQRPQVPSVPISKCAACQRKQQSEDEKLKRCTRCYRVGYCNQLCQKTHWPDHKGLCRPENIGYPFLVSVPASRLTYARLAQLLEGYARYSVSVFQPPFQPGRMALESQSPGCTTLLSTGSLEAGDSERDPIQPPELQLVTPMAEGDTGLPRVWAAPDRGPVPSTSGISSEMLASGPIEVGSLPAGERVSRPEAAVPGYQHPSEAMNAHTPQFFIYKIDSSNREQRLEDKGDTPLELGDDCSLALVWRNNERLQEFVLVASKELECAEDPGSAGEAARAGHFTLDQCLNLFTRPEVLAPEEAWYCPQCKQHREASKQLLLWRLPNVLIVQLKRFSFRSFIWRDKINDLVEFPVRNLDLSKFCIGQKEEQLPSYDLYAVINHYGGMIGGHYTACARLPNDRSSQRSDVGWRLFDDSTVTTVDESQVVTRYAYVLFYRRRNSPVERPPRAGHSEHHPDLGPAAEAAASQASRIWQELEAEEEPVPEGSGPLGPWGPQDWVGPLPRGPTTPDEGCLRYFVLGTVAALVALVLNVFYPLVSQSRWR
Assay type: biochemical
Design: Full-length USP19 was purchased from Boston Biochem (E-576); purchased Boston Biochem E-576
Description: Unless otherwise stated, all other reagents were purchased from Sigma. Enzymatic reactions were conducted in black flat bottom polystyrene 384-well plates (Nunc) and 30 μL total volume. […] Inhibitors were stored as 10 mM DMSO stocks in an inert environment (low humidity, dark, low oxygen, room temperature) using the Storage Pod System and serial dilutions were prepared in buffer just prior to the assay (from 200 μM to 2 μM, 8-18 data point curve). Following incubation at RT for 30 min, the enzymatic reactions were initiated by dispensing the Ub substrate (500 nM, 10 μL). FP was measured every 15 min over a period of 90 min (within the linear range of the assay) using a Synergy 4 plate reader (BioTek) exciting at 530 nm and measuring the amount of parallel and perpendicular light at 575 nm. The FP signal was subsequently normalised to the no compound control.

pIC50, > 6.30:
C[C@H](CC1CCCCC1)C(=O)N1CCC(O)(Cn2cnc(-c3ccccc3)cc2=O)C(C)(C)C1 (mixture of isomers) [Example 50, 3-(((R)-1-((R)-3-Cyclohexyl-2-methylpropanoyl)-4-hydroxy-3,3-dimethylpiperidin-4-yl)methyl)-6-phenylpyrimidin-4(3H)-one and 3-(((S)-1-((R)-3-Cyclohexyl-2-methylpropanoyl)-4-hydroxy-3,3-dimethylpiperidin-4-yl)methyl)-6-phenylpyrimidin-4(3H)-one]
CN(C)C(=O)c1cn(C[C@]2(O)CCN(C(=O)[C@H](CCO)CC3CCCCC3)CC2(C)C)c(=O)cc1-c1ccccc1 [Example 164, 1-(((S)-1-((S)-2-(Cyclohexylmethyl)-4-hydroxybutanoyl)-4-hydroxy-3,3-dimethylpiperidin-4-yl)methyl)-N,N-dimethyl-6-oxo-4-phenyl-1,6-dihydropyridine-3-carboxamide]
C[C@H](CC1CCCCC1)C(=O)N1CC[C@@](O)(Cn2cc(C(=O)N3CCNCC3)c(-c3ccccc3)cc2=O)C(C)(C)C1 [Example 124, 1-(((S)-1-((R)-3-Cyclohexyl-2-methylpropanoyl)-4-hydroxy-3,3-dimethylpiperidin-4-yl)methyl)-4-phenyl-5-(piperazine-1-carbonyl)pyridin-2(1H)-one]
C[C@H](CC1CCCCC1)C(=O)N1CC[C@@](O)(Cn2cc(C(=O)O)c(-c3ccccc3)cc2=O)C2(CCCC2)C1 [Example 253, 1-(((S)-7-((R)-3-Cyclohexyl-2-methylpropanoyl)-10-hydroxy-7-azaspiro[4.5]decan-10-yl)methyl)-6-oxo-4-phenyl-1,6-dihydropyridine-3-carboxylic acid]
C[C@H](CC1CCCCC1)C(=O)N1CC[C@@](O)(Cn2cc(C(=O)N(C)C)c(-c3ccccc3F)cc2=O)C2(CCCC2)C1 [Example 226, 1-(((S)-7-((R)-3-Cyclohexyl-2-methylpropanoyl)-10-hydroxy-7-azaspiro[4.5]decan-10-yl)methyl)-4-(2-fluorophenyl)-N,N-dimethyl-6-oxo-1,6-dihydropyridine-3-carboxamide]
CC(=O)N1CCN(C(=O)c2cn(CC3(O)CCN(C(=O)[C@H](C)CC4CCCCC4)CC3(C)C)c(=O)cc2-c2ccccc2)CC1 (some centres unmarked) [Example 169]
C[C@H](CC(F)(F)F)C(=O)N1CC[C@@](O)(Cn2cc(C(=O)N(C)C)c(-c3ccccc3)cc2=O)C2(CCCC2)C1 [Example 216, 1-(((S)-10-Hydroxy-7-((R)-4,4,4-trifluoro-2-methylbutanoyl)-7-azaspiro[4.5]decan-10-yl)methyl)-N,N-dimethyl-6-oxo-4-phenyl-1,6-dihydropyridine-3-carboxamide]
C[C@H](CC1CCCCC1)C(=O)N1CCC(O)(Cn2cnc(-c3cccc(CO)c3)cc2=O)C(C)(C)C1 (some centres unmarked) [Example 138]
CC(C)CC(C)C(=O)N1CCC(O)(Cn2cc(C(=O)N(C)C)c(-c3ccccc3)cc2=O)C2(CCCC2)C1 (centres unmarked) [Example 197, 1-((7-(2,4-Dimethylpentanoyl)-10-hydroxy-7-azaspiro[4.5]decan-10-yl)methyl)-N,N-dimethyl-6-oxo-4-phenyl-1,6-dihydropyridine-3-carboxamide]
C[C@H](CC1CCC1)C(=O)N1CC[C@@](O)(Cn2cc(C(=O)N(C)C)c(-c3ccccc3F)cc2=O)C2(CCCC2)C1 [Example 222, 1-(((S)-7-((R)-3-Cyclobutyl-2-methylpropanoyl)-10-hydroxy-7-azaspiro[4.5]decan-10-yl)methyl)-4-(2-fluorophenyl)-N,N-dimethyl-6-oxo-1,6-dihydropyridine-3-carboxamide]
C[C@H](CC1CCCCC1)C(=O)N1CC[C@@](O)(Cn2cc(C(=O)N3CCN(C)CC3)c(-c3ccccc3)cc2=O)C2(CCCC2)C1 [Example 240, 1-(((S)-7-((R)-3-Cyclohexyl-2-methylpropanoyl)-10-hydroxy-7-azaspiro[4.5]decan-10-yl)methyl)-5-(4-methylpiperazine-1-carbonyl)-4-phenylpyridin-2(1 H)-one]
